Experimental data taken from US20240025922A1, “TETRAHYDROPYRIDO[3,4-d]PYRIMIDINES AS HPK1 INHIBITORS” (Merck Patent GmbH, priority 2022, published 2024).

Biological target: full-length human HPK1 (MAP4K1) (Homo sapiens (Human), UniProt Q92918)
Experiment: HPK1 Kinase Assay (Biochemical Assay), ADP-Glo
Details: GST-HPK1 3.2 nM, 10 μM ATP, MBP substrate, read-out: HPK1 enzymatic IC50
Text: HPK1 Kinase Assay (Biochemical Assay).
A recombinant fusion protein consisting of full-length human HPK1 (MAP4K1) with an N-terminal Glutatione S-transferase (GST) tag was produced in insect cells Sf21 using the baculovirus expression system. GST-HPK1 protein was purified from cell lysates by glutathione Sepharose affinity chromatography. The assay is run in three continuous steps: 1) the HPK1 enzymatic kinase reaction, 2) an ATP depletion, and 3) the ADP detection, the steps 2 and 3 are performed with ADP-Glo™ Kinase Assay kit from Promega (V9101). Test compounds were prepared by 10-point serial dilution in dimethyl sulfoxide (DMSO) and 100 nL of each dilution was spotted onto a 384-well Optiplate (Perkin Elmer and Cat #6007299) by Labcyte Echo. 5 μL kinase reaction buffer (0.02% Brij-35, 2 mM DTT, 50 mM HEPES pH 7.5, MgCl2 10 mM, BSA 0.01% and O-glycerophosphate 12.5 mM) containing HPK1 (3.2 nM) enzyme was transferred to each well and incubated for 15 minutes at room temperature at 60% humidity. The enzymatic reaction was started by adding 5 μl of Start-Mix (10 μM ATP and 3.235 μM MBP). After 120 minutes, the reaction was stopped by adding 5 μL of ADP-Glo reagent (Promega, V9101) and incubating for 40 min. in the dark at 23° C. To determine the level of ADP, 10 μl ADP-Glo Detection solution was added and incubated for 1 hour at 23° C. in the dark. The plate was transferred to a Perkin Elmer EnVision (2104 Multilabel Reader) for luminescence detection and percent inhibition activity and IC50 value were determined using Genedata Screener.

Sequence of full-length human HPK1 (MAP4K1) (Q92918 whole entry): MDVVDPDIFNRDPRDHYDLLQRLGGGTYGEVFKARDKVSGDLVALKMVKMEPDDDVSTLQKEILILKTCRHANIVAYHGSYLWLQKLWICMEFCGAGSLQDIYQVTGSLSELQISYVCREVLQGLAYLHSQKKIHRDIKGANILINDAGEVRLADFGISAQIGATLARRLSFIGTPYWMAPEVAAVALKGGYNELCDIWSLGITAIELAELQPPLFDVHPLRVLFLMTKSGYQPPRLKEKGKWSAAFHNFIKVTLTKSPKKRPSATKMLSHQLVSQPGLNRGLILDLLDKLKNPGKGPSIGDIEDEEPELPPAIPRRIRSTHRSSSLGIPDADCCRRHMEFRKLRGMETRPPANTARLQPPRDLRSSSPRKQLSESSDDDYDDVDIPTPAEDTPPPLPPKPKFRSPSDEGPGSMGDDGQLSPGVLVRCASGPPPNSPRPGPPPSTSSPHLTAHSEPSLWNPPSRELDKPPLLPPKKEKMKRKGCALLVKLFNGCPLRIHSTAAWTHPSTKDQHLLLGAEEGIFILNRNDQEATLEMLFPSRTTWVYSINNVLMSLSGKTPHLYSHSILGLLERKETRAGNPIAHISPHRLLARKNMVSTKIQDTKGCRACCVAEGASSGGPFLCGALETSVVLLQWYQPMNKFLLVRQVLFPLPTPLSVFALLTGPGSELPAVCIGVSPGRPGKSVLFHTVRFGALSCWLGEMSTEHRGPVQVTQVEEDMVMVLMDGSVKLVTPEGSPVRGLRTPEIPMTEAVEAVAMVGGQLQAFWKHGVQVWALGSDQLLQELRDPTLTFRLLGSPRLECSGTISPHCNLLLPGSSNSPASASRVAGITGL

SMILES | IC50
Cc1c(N2CCc3cnc(Nc4ccc(NC(=O)C5(C)COC5)nc4)nc3C2)cnc2c1NCCO2 [Example 8, 3-methyl-N-{5-[(7-{8-methyl-1H,2H,3H-pyrido[2,3-b][1,4]oxazin-7-yl}-5H,6H,7H,8H-pyrido[3,4-d]pyrimidin-2-yl)amino]pyridin-2-yl}oxetane-3-carboxamide] | 100 to 1000 nM
Cc1c(N2CCc3cnc(Nc4ccc(C(=O)N5CC[C@@H](N(C)C)C5)cc4)cc3C2)cnc2c1NCCO2 [Example 11, N-{4-[(3R)-3-(dimethylamino)pyrrolidine-1-carbonyl]phenyl}-6-{8-methyl-1H,2H,3H-pyrido[2,3-b][1,4]oxazin-7-yl}-5,6,7,8-tetrahydro-2,6-naphthyridin-3-amine] | < 100 nM
Cc1c(N2CCc3cnc(Nc4cc5n(n4)CC(=O)N(C)CC5)nc3C2)cnc2c1NCCO2 [Example 22, 6-methyl-2-[(7-{8-methyl-1H,2H,3H-pyrido[2,3-b][1,4]oxazin-7-yl}-5H,6H,7H,8H-pyrido[3,4-d]pyrimidin-2-yl)amino]-4H,5H,6H,7H,8H-pyrazolo[1,5-d][1,4]diazepin-7-one] | 100 to 1000 nM
Cc1cc(Nc2ncc3c(n2)CN(c2cnc4c(c2C)NCCO4)CC3)cnc1N(C)CCN1CCOCC1 [Example 43, N2,3-dimethyl-N5-(7-{8-methyl-1H,2H,3H-pyrido[2,3-b][1,4]oxazin-7-yl}-5H,6H,7H,8H-pyrido[3,4-d]pyrimidin-2-yl)-N2-[2-(morpholin-4-yl)ethyl]pyridine-2,5-diamine] | < 100 nM
Cc1c(N2CCc3cnc(Nc4ccnc(N5CCOCC5)c4)cc3C2)cnc2c1NCCO2 [Example 54, 6-(8-methyl-2,3-dihydro-1H-pyrido[2,3-b][1,4]oxazin-7-yl)-N-(2-morpholinopyridin-4-yl)-5,6,7,8-tetrahydro-2,6-naphthyridin-3-amine] | < 100 nM
Cc1c(N2CCc3cnc(Nc4ccc5c(c4)CCN(C)CC5)nc3C2)cnc2c1NCCO2 [Example 62, 3-methyl-N-(7-{8-methyl-1H,2H,3H-pyrido[2,3-b][1,4]oxazin-7-yl}-5H,6H,7H,8H-pyrido[3,4-d]pyrimidin-2-yl)-2,3,4,5-tetrahydro-1H-3-benzazepin-7-amine] | < 100 nM
Cc1c(N2CCc3cnc(Nc4ccc(CN5CCN(C)CC5)cc4)nc3C2)cnc2c1NCCO2 [Example 64, 7-{8-methyl-1H,2H,3H-pyrido[2,3-b][1,4]oxazin-7-yl}-N-{4-[(4-methylpiperazin-1-yl)methyl]phenyl}-5H,6H,7H,8H-pyrido[3,4-d]pyrimidin-2-amine] | < 100 nM
Cc1c(N2CCc3cnc(NC4CCN(Cc5cnn(C)c5)CC4)nc3C2)cnc2c1NCCO2 [Example 70, N-(7-{8-methyl-1H,2H,3H-pyrido[2,3-b][1,4]oxazin-7-yl}-5H,6H,7H,8H-pyrido[3,4-d]pyrimidin-2-yl)-1-[(1-methyl-1H-pyrazol-4-yl)methyl]piperidin-4-amine] | > 1000 nM
Cc1c(N2CCc3cnc(Nc4ccnc(S(C)(=O)=O)c4)nc3C2)cnc2c1NCCO2 [Example 75, 7-(8-methyl-2,3-dihydro-1H-pyrido[2,3-b][1,4]oxazin-7-yl)-N-(2-(methylsulfonyl)pyridin-4-yl)-5,6,7,8-tetrahydropyrido[3,4-d]pyrimidin-2-amine] | < 100 nM
COCc1cncc(N2CCc3cnc(Nc4ccc(C5CCOCC5)c(CO)c4)nc3C2)c1 [Example 78, (5-((7-(5-(methoxymethyl)pyridin-3-yl)-5,6,7,8-tetrahydropyrido[3,4-d]pyrimidin-2-yl)amino)-2-(tetrahydro-2H-pyran-4-yl)phenyl)methanol] | 100 to 1000 nM
Cc1cnsc1N1CCc2cnc(Nc3cc4n(n3)CC(=O)N(C(C)C)CC4)nc2C1 [Example 86, 2-{[7-(4-methyl-1,2-thiazol-5-yl)-5H,6H,7H,8H-pyrido[3,4-d]pyrimidin-2-yl]amino}-6-(propan-2-yl)-4H,5H,6H,7H,8H-pyrazolo[1,5-d][1,4]diazepin-7-one; trifluoroacetic acid] | > 1000 nM
Cc1c(N2CCc3cnc(Nc4cnc5c(c4)CN(C)CC5)nc3C2)cnc2c1NC(=O)CO2 [Example 88, 8-methyl-7-(2-((6-methyl-5,6,7,8-tetrahydro-1,6-naphthyridin-3-yl)amino)-5,8-dihydropyrido[3,4-d]pyrimidin-7(6H)-yl)-1H-pyrido[2,3-b][1,4]oxazin-2(3H)-one] | < 100 nM
Cc1c(N2CCc3cnc(Nc4cnc5c(c4)CN(C)CC5)nc3C2)cnc2c1OCCO2 [Example 95, 7-(8-methyl-2,3-dihydro-[1,4]dioxino[2,3-b]pyridin-7-yl)-N-(6-methyl-5,6,7,8-tetrahydro-1,6-naphthyridin-3-yl)-5,6,7,8-tetrahydropyrido[3,4-d]pyrimidin-2-amine] | < 100 nM
Cc1c(N2CCc3cnc(Nc4cnc5c(c4)CN(C)CC5)nc3C2)cnc2c1N(C)CCO2 [Example 101, 7-(1,8-dimethyl-2,3-dihydro-1H-pyrido[2,3-b][1,4]oxazin-7-yl)-N-(6-methyl-5,6,7,8-tetrahydro-1,6-naphthyridin-3-yl)-5,6,7,8-tetrahydropyrido[3,4-d]pyrimidin-2-amine] | < 100 nM
CN1CCc2ncc(Nc3ncc4c(n3)CN(c3cnn(C)c3)CC4)cc2C1 [Example 114, 7-(1-methyl-1H-pyrazol-4-yl)-N-(6-methyl-5,6,7,8-tetrahydro-1,6-naphthyridin-3-yl)-5,6,7,8-tetrahydropyrido[3,4-d]pyrimidin-2-amine] | < 100 nM
COc1cccc(F)c1N1CCc2cnc(Nc3ccc(C4CCN(C)CC4)cc3)nc2C1 [Example 117, 7-(2-fluoro-6-methoxyphenyl)-N-(4-(1-methylpiperidin-4-yl)phenyl)-5,6,7,8-tetrahydropyrido[3,4-d]pyrimidin-2-amine] | < 100 nM
Cc1c(N2CCc3cnc(Nc4ccc(CN5CC(C)(O)C5)cc4)nc3C2)cnc2c1NCCO2 [Example 123, 3-methyl-1-(4-((7-(8-methyl-2,3-dihydro-1H-pyrido[2,3-b][1,4]oxazin-7-yl)-5,6,7,8-tetrahydropyrido[3,4-d]pyrimidin-2-yl)amino)benzyl)azetidin-3-ol] | 100 to 1000 nM
CN1CCc2ncc(Nc3ncc4c(n3)CN(c3ccccn3)CC4)cc2C1 [Example 129, 6-methyl-N-[7-(pyridin-2-yl)-5H,6H,7H,8H-pyrido[3,4-d]pyrimidin-2-yl]-5,6,7,8-tetrahydro-1,6-naphthyridin-3-amine] | 100 to 1000 nM
Cc1c(N2CCc3cnc(Nc4ccc(CCO)cc4)nc3C2)cnc2c1NCCO2 [Example 134, 2-{4-[(7-{8-methyl-1H,2H,3H-pyrido[2,3-b][1,4]oxazin-7-yl}-5H,6H,7H,8H-pyrido[3,4-d]pyrimidin-2-yl)amino]phenyl}ethan-1-ol] | < 100 nM
CS(=O)(=O)Cc1ccc(Nc2ncc3c(n2)CN(c2cnc4cnccn24)CC3)cc1 [Example 136, 7-{imidazo[1,2-a]pyrazin-3-yl}-N-[4-(methanesulfonylmethyl)phenyl]-5H,6H,7H,8H-pyrido[3,4-d]pyrimidin-2-amine] | > 1000 nM
COCCOCCS(=O)(=O)Cc1ccc(Nc2ncc3c(n2)CN(c2cnc4c(c2C)NCCO4)CC3)cc1 [Example 137, N-(4-{[2-(2-methoxyethoxy)ethanesulfonyl]methyl}phenyl)-7-{8-methyl-1H,2H,3H-pyrido[2,3-b][1,4]oxazin-7-yl}-5H,6H,7H,8H-pyrido[3,4-d]pyrimidin-2-amine] | < 100 nM
Cc1c(N2CCc3cnc(Nc4cc5n(n4)CC(=O)N(C4CC4)CC5)cc3C2)cnc2c1NCCO2 [Example 141, 6-cyclopropyl-2-[(6-{8-methyl-1H,2H,3H-pyrido[2,3-b][1,4]oxazin-7-yl}-5,6,7,8-tetrahydro-2,6-naphthyridin-3-yl)amino]-4H,5H,6H,7H,8H-pyrazolo[1,5-d][1,4]diazepin-7-one] | < 100 nM
Cn1ccc2c(N3CCc4cnc(Nc5ccc(CS(C)(=O)=O)cc5)nc4C3)ccnc21 [Example 146, N-[4-(methanesulfonylmethyl)phenyl]-7-{1-methyl-1H-pyrrolo[2,3-b]pyridin-4-yl}-5H,6H,7H,8H-pyrido[3,4-d]pyrimidin-2-amine] | > 1000 nM
Cc1cc(Nc2ncc3c(n2)CN(c2cnc4c(c2C)NCCO4)CC3)ccc1CC#N [Example 149, 2-{2-methyl-4-[(7-{8-methyl-1H,2H,3H-pyrido[2,3-b][1,4]oxazin-7-yl}-5H,6H,7H,8H-pyrido[3,4-d]pyrimidin-2-yl)amino]phenyl}acetonitrile] | < 100 nM
Clc1c(N2CCc3cnc(Nc4ccc(-c5nnc(C6CC6)o5)cc4)nc3C2)cnc2c1NCCO2 [Example 159, 7-{8-chloro-1H,2H,3H-pyrido[2,3-b][1,4]oxazin-7-yl}-N-[4-(5-cyclopropyl-1,3,4-oxadiazol-2-yl)phenyl]-5H,6H,7H,8H-pyrido[3,4-d]pyrimidin-2-amine] | < 100 nM
Cc1c(N2CCc3cnc(Nc4ccc(CS(C)(=O)=O)cc4)nc3C2)cnc2oc(=O)[nH]c12 [Example 160, 6-(2-{[4-(methanesulfonylmethyl)phenyl]amino}-5H,6H,7H,8H-pyrido[3,4-d]pyrimidin-7-yl)-7-methyl-1H,2H-[1,3]oxazolo[5,4-b]pyridin-2-one] | < 100 nM
